Measurements from ChEMBL document CHEMBL4350991, “Design, synthesis, and biological evaluation of rutacecarpine derivatives as multitarget-directed ligands for the treatment of Alzheimer's disease” (Eur J Med Chem, 2019).
Active and inactive are the calls of the source. The calls are words filed in the database; no cut-off is given here.

Columns and labels:
[1] = Metal chelating activity assessed as compound-Mg2+ complex formation at 20 uM in presence of MgCl2 after 1 hr by UV-visible spectrophotometric analysis
PC-12 [2] = test: cells; format: functional; settings: Rattus norvegicus
SH-SY5Y [3] = test: Neuro-antioxidant activity in human SH-SY5Y cells assessed as H2O2-induced increase in intracellular ROS generation at 50 uM preincubated for 6 hrs followed by H2O2 challenge for 24 hrs by DCFH-DA staining-based fluorescence assay relative to control (reference value: 119.61 +/- 5.269%); format: functional
[4] = Metal chelating activity assessed as mole fraction of compound required to show 1:1 stoichiometry for compound-Cu2+ complex at 20 uM after 1 hr by UV-Vis absorption spectrophotometric method
PC-12 [5] = test: cells; format: functional; settings: Rattus norvegicus; remark: listed apart in the source
SH-SY5Y [6] = test: Neuroprotective activity against amyloid beta (1 to 42 residues) induced cytotoxicity in human SH-SY5Y cells assessed as increase in cell viability pretreated for 3 hrs followed by amyloid beta (1 to 42 residues) challenge measured after 24 hrs by MTT assay; format: functional, cell-based
SH-SY5Y [7] = test: Neuro-antioxidant activity against H2O2-induced oxidative stress in human SH-SY5Y cells assessed as intracellular ROS generation at 10 uM preincubated for 6 hrs followed by H2O2 challenge for 24 hrs by DCFH-DA staining-based fluorescence assay (reference value: 119.61 +/- 5.269%); format: functional
Cholinesterase = Cholinesterase (Equus caballus, UniProt P81908)
Description: Inhibition of equine serum BuChE using S-butyrylthiocholine iodide as substrate preincubated with enzyme for 30 mins followed by substrate addition and measured after 30 mins by Ellman's method

SH-SY5Y [8] = test: Neuroprotective activity against amyloid beta (1 to 42 residues) induced cytotoxicity in human SH-SY5Y cells assessed as cell viability at 50 uM pretreated for 3 hrs followed by amyloid beta(1-42) challenge measured after 24 hrs by MTT assay (reference value: 37.53 +/- 1.4 %); format: functional; settings: read-out: Activity
[9] = n-Octanol-phosphate buffer partition co-efficient, log P of compound at pH 7.4 incubated for 48 hrs by UV spectrophotometry-based shake-flask method; format: physicochemical
PC-12 [10] = test: cells; format: functional; settings: Rattus norvegicus; remark: listed apart in the source
SH-SY5Y [11] = test: Neuro-antioxidant activity against H2O2-induced oxidative stress in human SH-SY5Y cells assessed as intracellular ROS generation at 1 uM preincubated for 6 hrs followed by H2O2 challenge for 24 hrs by DCFH-DA staining-based fluorescence assay (reference value: 119.61 +/- 5.269%); format: functional
SH-SY5Y [12] = test: Neuroprotective activity against H2O2-induced cytotoxicity in human SH-SY5Y cells assessed as cell viability at 30 uM pretreated for 3 hrs followed by H2O2 challenge measured after 24 hrs by MTT assay (reference value: 42.69 +/- 0.8%); format: functional; settings: read-out: Activity
[13] = biological target: Cholinesterase (Equus caballus) (UniProt P81908); test: Mixed-type inhibition of equine serum BuChE up to 8 uM using varying levels of S-butyrylthiocholine iodide as substrate preincubated for 30 mins followed by substrate addition and measured after 30 mins by Lineweaver-Burk plot analysis
SH-SY5Y [14] = test: Neuroprotective activity against amyloid beta (1 to 42 residues) induced cytotoxicity in human SH-SY5Y cells assessed as cell viability at 30 uM pretreated for 3 hrs followed by amyloid beta(1-42) challenge measured after 24 hrs by MTT assay (reference value: 37.53 +/- 1.4 %); format: functional; settings: read-out: Activity
SH-SY5Y [15] = test: Neuroprotective activity against H2O2-induced cytotoxicity in human SH-SY5Y cells assessed as cell viability at 10 uM pretreated for 3 hrs followed by H2O2 challenge measured after 24 hrs by MTT assay (reference value: 42.69 +/- 0.8%); format: functional; settings: read-out: Activity
[16] = biological target: Amyloid-beta precursor protein (Homo sapiens) (UniProt P05067); test: Inhibition of self-mediated amyloid beta (1 to 42) (unknown origin) aggregation assessed as short and thin fibril formation at 100 uM incubated for 48 hrs by transmission electron microscopic method
SH-SY5Y [17] = test: Neuro-antioxidant activity against H2O2-induced oxidative stress in human SH-SY5Y cells assessed as intracellular ROS generation at 5 uM preincubated for 6 hrs followed by H2O2 challenge for 24 hrs by DCFH-DA staining-based fluorescence assay (reference value: 119.61 +/- 5.269%); format: functional
Acetylcholinesterase = Acetylcholinesterase (Electrophorus electricus, UniProt O42275); format: ADME
Description: Inhibition of electric eel AChE using acetylthiocholine iodide as substrate preincubated for 30 mins followed by substrate addition and measured after 30 mins by Ellman's method

[18] = Metal chelating activity assessed as compound-Zn2+ complex formation at 20 uM in presence of ZnCl2 after 1 hr by UV-visible spectrophotometric analysis
SH-SY5Y [19] = test: Neuroprotective activity against amyloid beta (1 to 42 residues) induced cytotoxicity in human SH-SY5Y cells assessed as cell viability at 10 uM pretreated for 3 hrs followed by amyloid beta(1-42) challenge measured after 24 hrs by MTT assay (reference value: 37.53 +/- 1.4%); format: functional; settings: read-out: Activity
SH-SY5Y [20] = test: Neuro-antioxidant activity against H2O2-induced oxidative stress in human SH-SY5Y cells assessed as intracellular ROS generation at 20 uM preincubated for 6 hrs followed by H2O2 challenge for 24 hrs by DCFH-DA staining-based fluorescence assay (reference value: 119.61 +/- 5.269%); format: functional
[21] = Metal chelating activity assessed as compound-Al3+ complex formation at 20 uM in presence of AlCl3 after 1 hr by UV-visible spectrophotometric analysis
SH-SY5Y [22] = test: Neuroprotective activity against H2O2-induced cytotoxicity in human SH-SY5Y cells assessed as cell viability at 50 uM pretreated for 3 hrs followed by H2O2 challenge measured after 24 hrs by MTT assay (reference value: 42.69 +/- 0.8%); format: functional; settings: read-out: Activity
SH-SY5Y [23] = test: Neuroprotective activity against H2O2-induced cytotoxicity in human SH-SY5Y cells assessed as increase in cell viability pretreated for 3 hrs followed by H2O2 challenge measured after 24 hrs by MTT assay; format: functional, cell-based
[24] = Metal chelating activity assessed as compound-Cu2+ complex formation at 20 uM in presence of CuCl2 after 1 hr by UV-visible spectrophotometric analysis
PC-12 [25] = test: cells; format: functional; settings: Rattus norvegicus; remark: listed apart in the source
PC-12 [26] = test: cells; format: functional; settings: Rattus norvegicus; remark: listed apart in the source
[27] = Metal chelating activity assessed as compound-Ca2+ complex formation at 20 uM in presence of CaCl2 after 1 hr by UV-visible spectrophotometric analysis
[28] = Metal chelating activity assessed as compound-Fe2+ complex formation at 20 uM in presence of FeSO4 after 1 hr by UV-visible spectrophotometric analysis
PC-12 [29] = test: Neuroprotective activity against H2O2 induced cytotoxicity in rat PC12 cells assessed as increase in cell viability pretreated for 3 hrs followed by H2O2 challenge measured after 24 hrs by MTT assay; format: functional, cell-based

Amyloid-beta precursor protein (Homo sapiens), sequence (P05067 whole entry): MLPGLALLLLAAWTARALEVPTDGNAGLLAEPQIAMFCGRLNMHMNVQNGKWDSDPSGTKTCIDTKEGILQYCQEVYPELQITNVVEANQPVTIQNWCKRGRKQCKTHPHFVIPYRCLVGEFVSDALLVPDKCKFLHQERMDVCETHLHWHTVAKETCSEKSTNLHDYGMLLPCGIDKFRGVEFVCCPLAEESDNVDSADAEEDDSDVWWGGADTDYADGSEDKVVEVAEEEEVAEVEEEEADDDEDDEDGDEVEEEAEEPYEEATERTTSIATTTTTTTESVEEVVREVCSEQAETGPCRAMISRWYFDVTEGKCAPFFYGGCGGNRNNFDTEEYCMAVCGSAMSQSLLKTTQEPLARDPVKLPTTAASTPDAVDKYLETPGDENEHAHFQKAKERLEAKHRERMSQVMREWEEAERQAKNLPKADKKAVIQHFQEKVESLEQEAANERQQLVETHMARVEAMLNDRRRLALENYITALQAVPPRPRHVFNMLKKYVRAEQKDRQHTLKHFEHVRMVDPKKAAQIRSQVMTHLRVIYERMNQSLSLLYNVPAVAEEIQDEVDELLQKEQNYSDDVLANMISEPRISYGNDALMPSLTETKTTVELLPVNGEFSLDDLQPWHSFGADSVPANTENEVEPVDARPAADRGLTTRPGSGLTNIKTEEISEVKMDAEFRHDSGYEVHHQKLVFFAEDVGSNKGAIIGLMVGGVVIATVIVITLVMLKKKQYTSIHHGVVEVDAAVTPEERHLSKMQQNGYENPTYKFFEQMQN
Cholinesterase, sequence (P81908 whole entry, the tested form may be a part): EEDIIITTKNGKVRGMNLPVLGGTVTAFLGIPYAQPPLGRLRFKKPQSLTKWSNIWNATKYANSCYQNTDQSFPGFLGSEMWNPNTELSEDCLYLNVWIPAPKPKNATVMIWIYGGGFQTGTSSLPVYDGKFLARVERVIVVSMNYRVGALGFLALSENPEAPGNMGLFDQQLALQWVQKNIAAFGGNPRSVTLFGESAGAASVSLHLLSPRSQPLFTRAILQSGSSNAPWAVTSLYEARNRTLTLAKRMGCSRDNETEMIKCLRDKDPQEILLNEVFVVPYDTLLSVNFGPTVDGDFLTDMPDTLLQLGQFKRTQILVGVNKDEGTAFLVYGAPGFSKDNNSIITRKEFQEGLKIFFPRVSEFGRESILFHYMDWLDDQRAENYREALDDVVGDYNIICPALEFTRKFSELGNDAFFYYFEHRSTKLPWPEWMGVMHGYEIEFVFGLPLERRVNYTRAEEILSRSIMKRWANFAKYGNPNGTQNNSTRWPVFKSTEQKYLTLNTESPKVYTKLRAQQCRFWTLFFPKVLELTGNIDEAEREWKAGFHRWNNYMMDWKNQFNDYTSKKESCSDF
Cholinesterase (Equus caballus), sequence (P81908 whole entry, the tested form may be a part): as above
Acetylcholinesterase, sequence (O42275 whole entry): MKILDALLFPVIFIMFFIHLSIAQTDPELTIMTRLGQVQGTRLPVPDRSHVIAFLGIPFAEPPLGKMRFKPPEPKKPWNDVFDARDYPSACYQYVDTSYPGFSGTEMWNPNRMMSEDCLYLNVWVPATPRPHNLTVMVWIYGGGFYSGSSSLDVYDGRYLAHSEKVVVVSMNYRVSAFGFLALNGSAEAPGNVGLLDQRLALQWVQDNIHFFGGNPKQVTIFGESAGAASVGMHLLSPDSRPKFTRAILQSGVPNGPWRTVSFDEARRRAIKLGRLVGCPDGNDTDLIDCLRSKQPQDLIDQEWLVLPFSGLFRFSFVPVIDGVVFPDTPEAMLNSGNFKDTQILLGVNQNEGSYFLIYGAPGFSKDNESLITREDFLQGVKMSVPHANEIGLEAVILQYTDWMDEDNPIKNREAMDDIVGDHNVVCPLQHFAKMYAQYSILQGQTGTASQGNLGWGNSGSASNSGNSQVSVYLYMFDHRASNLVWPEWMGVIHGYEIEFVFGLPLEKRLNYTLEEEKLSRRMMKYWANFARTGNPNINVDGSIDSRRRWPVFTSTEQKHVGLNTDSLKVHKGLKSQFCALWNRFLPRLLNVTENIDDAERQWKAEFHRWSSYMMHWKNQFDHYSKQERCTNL

In the case of `O=c1c2cc(NS(=O)(=O)c3ccccc3OC(F)(F)F)ccc2nc2n1CCc1c-2[nH]c2ccccc12`, the Activity [1] is reported as “inactive”, the viability at 10 µM (PC-12 [2]) is reported as 59.7% and the Activity (SH-SY5Y [3]) is reported as 98.502%. The Activity [4] was 1.1 molar ratio, the viability at 1 µM (PC-12 [5]) was 44.3% and the Activity (SH-SY5Y [6]) was “Dose-dependent effect”. The Activity (SH-SY5Y [7]) was 82.464%, the IC50 (Cholinesterase) was 3.6 µM and the viability at 50 µM (SH-SY5Y [8]) was 64.2%. The logD at 48 h [9] was 3.62, the viability at 50 µM (PC-12 [10]) was 63.8% and the Activity (SH-SY5Y [11]) was 83.17%. The viability at 30 µM (SH-SY5Y [12]) was 61.7%, the inhibition [13] was “Active” and the viability at 30 µM (SH-SY5Y [14]) was 57.6%. For the same compound, the viability at 10 µM (SH-SY5Y [15]) was 53.9%, the inhibition [16] was “Active” and the Activity (SH-SY5Y [17]) was 84.23%. The IC50 (Acetylcholinesterase) was > 100 µM, the Activity [18] was “inactive” and the viability at 10 µM (SH-SY5Y [19]) was 47.9%. The Activity (SH-SY5Y [20]) was 105.494%, the Activity [21] was “inactive” and the viability at 50 µM (SH-SY5Y [22]) was 61.9%. The Activity (SH-SY5Y [23]) was “Dose-dependent effect”, the Activity [24] was “Active” and the viability at 30 µM (PC-12 [25]) was 59.9%. The viability at 5 µM (PC-12 [26]) was 45.3%, the Activity [27] was “inactive” and the Activity [28] was “inactive”. The Activity (PC-12 [29]) was “Dose-dependent effect”.
